Experimental data: the supplement of paper PMC4862054
“And” between values parts separate entries of the source, which are not always exact repeats. Equal values may be shown once.

What was measured:
Conditions in all cases: incubation time: 72 h
MDA-MB-231 [1] = assay: normalised viability (% of control), CellTiter-Blue; higher = more viable cells (100 = DMSO, 0 = benzethonium chloride kill control)
Procedure: (§1)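 DSRT, CellTiter-Blue viability, 72 h incubation. Signal is normalised to DMSO and benzethonium chloride controls. Value is the normalised response at dose 1.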

MDA-MB-453 [2] = assay: as above
Procedure: as §1

HCC1599 [3] = assay: as above
Procedure: as §1

BT-474 = assay: as above
Procedure: as §1

SK-BR-3 = assay: as above
Procedure: as §1

MDA-MB-468 = assay: as above
Procedure: as §1

HCC1143 = assay: as above
Procedure: as §1

HCC1937 = assay: as above
Procedure: as §1

Hs578T = assay: as above
Procedure: as §1

CAL-148 [4] = assay: as above
Procedure: as §1

MFM-223 [5] = assay: as above
Procedure: as §1

BT-549 = assay: as above
Procedure: as §1

HDQ-P1 [6] = assay: as above
Procedure: as §1

CAL-85-1 [7] = assay: as above
Procedure: as §1

DU-4475 [8] = assay: as above
Procedure: as §1

CAL-120 = assay: as above
Procedure: as §1

MDA-MB-436 [9] = assay: as above
Procedure: as §1

CAL-51 [10] = assay: as above
Procedure: as §1

MDA-MB-231 [11] = assay: drug sensitivity score (DSS), CellTox Green (DSS (AUC-based score)); higher = stronger drug effect (viability inhibition or cytotoxicity); extreme values may be limits of the assay
Summary of the method: (§2)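 Compound was dispensed into 384-well plates at 5 concentrations in 10-fold steps spanning a 10,000-fold range chosen for each compound, and 20 µl of breast cancer cell suspension was added before 72 h of incubation. CellTox Green fluorescence was read at 485/520 nm, followed by CellTiter-Glo luminescence after 10 min at room temperature. Values on each plate were normalised to 0.1 % DMSO and a positive kill control. The drug sensitivity score came from the area under the fitted dose-response curve.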

MDA-MB-453 [12] = assay: as above
Summary of the method: as §2

HCC1599 [13] = assay: as above
Summary of the method: as §2

CAL-148 [14] = assay: as above
Summary of the method: as §2

MFM-223 [15] = assay: as above
Summary of the method: as §2

HDQ-P1 [16] = assay: as above
Summary of the method: as §2

CAL-85-1 [17] = assay: as above
Summary of the method: as §2

DU-4475 [18] = assay: as above
Summary of the method: as §2

MDA-MB-436 [19] = assay: as above
Summary of the method: as §2

CAL-51 [20] = assay: as above
Summary of the method: as §2

Work on `CS(=O)(=O)N1CCN(Cc2cc3nc(-c4cccc5[nH]ncc45)nc(N4CCOCC4)c3s2)CC1` [GDC-0941] yielded a normalised viability (MDA-MB-231 [1]; 1 nM) of 92.9%, a normalised viability (MDA-MB-453 [2]; 1 nM) of 93% and a normalised viability (HCC1599 [3]; 1 nM) of 92.8%. For the same compound, the normalised viability (BT-474; 1 nM) was 101%, the normalised viability (SK-BR-3; 1 nM) was 88.3% and the normalised viability (MDA-MB-468; 1 nM) was 95.5%. The normalised viability (HCC1143; 1 nM) was 84.1%, the normalised viability (HCC1937; 1 nM) was 112% and the normalised viability (Hs578T; 1 nM) was 112%. The normalised viability (CAL-148 [4]; 1 nM) was 100%, the normalised viability (MFM-223 [5]; 1 nM) was 89.7% and the normalised viability (BT-549; 1 nM) was 94.6%. The normalised viability (HDQ-P1 [6]; 1 nM) was 109%, the normalised viability (CAL-85-1 [7]; 1 nM) was 87.5% and the normalised viability (DU-4475 [8]; 1 nM) was 106%. For the same compound, the normalised viability (CAL-120; 1 nM) was 89.7%, the normalised viability (MDA-MB-436 [9]; 1 nM) was 118% and the normalised viability (CAL-51 [10]; 1 nM) was 114%.
In the case of `Cc1cccc(-c2nn3c(c2-c2ccnc4ccc(C(N)=O)cc24)CCC3)n1` [Galunisertib], the drug sensitivity score (MDA-MB-231 [11]) is reported as 0, the drug sensitivity score (MDA-MB-453 [12]) is reported as 0 and the drug sensitivity score (HCC1599 [13]) is reported as 0. It also gave a drug sensitivity score (CAL-148 [14]) of 0, a drug sensitivity score (MFM-223 [15]) of 0 and a drug sensitivity score (HDQ-P1 [16]) of 0. The drug sensitivity score (CAL-85-1 [17]) was 0, the drug sensitivity score (DU-4475 [18]) was 0 and the drug sensitivity score (MDA-MB-436 [19]) was 0.892. For the same compound, the drug sensitivity score (CAL-51 [20]) was 0.
`COc1nc(N)nc2c1ncn2[C@@H]1O[C@H](CO)[C@@H](O)[C@@H]1O` [Nelarabine] was tested, and the drug sensitivity score (MDA-MB-231 [11]) was 0, the drug sensitivity score (MDA-MB-453 [12]) was 0 and the drug sensitivity score (HCC1599 [13]) was 0. For the same compound, the drug sensitivity score (CAL-148 [14]) was 0, the drug sensitivity score (MFM-223 [15]) was 0 and the drug sensitivity score (HDQ-P1 [16]) was 0. The drug sensitivity score (CAL-85-1 [17]) was 0, the drug sensitivity score (DU-4475 [18]) was 0 and the drug sensitivity score (MDA-MB-436 [19]) was 0. For the same compound, the drug sensitivity score (CAL-51 [20]) was 0, the normalised viability (MDA-MB-231 [1]; 1 nM) was 93.7% and 78.7% and the normalised viability (MDA-MB-453 [2]; 1 nM) was 101% and 80.4%. For the same compound, the normalised viability (HCC1599 [3]; 1 nM) was 121% and 119%, the normalised viability (SK-BR-3; 1 nM) was 90% and 95.9% and the normalised viability (MDA-MB-468; 1 nM) was 103% and 92.2%. For the same compound, the normalised viability (HCC1143; 1 nM) was 105% and 98.5%, the normalised viability (HCC1937; 1 nM) was 94.7% and 81.3% and the normalised viability (Hs578T; 1 nM) was 99.1% and 107%. The normalised viability (CAL-148 [4]; 1 nM) was 101% and 110%, the normalised viability (MFM-223 [5]; 1 nM) was 97.6% and 107% and the normalised viability (BT-549; 1 nM) was 92% and 96.5%. The normalised viability (HDQ-P1 [6]; 1 nM) was 77.2% and 91.2%, the normalised viability (CAL-85-1 [7]; 1 nM) was 105% and 107% and the normalised viability (DU-4475 [8]; 1 nM) was 109% and 118%. The normalised viability (CAL-120; 1 nM) was 101% and 102%, the normalised viability (MDA-MB-436 [9]; 1 nM) was 98.1% and 89.7% and the normalised viability (CAL-51 [10]; 1 nM) was 102% and 99.3%.
`CS(=O)(=O)N1CCN(Cc2cc3nc(-c4cccc5[nH]ncc45)nc(N4CCOCC4)c3s2)CC1` [Pictilisib] gave a drug sensitivity score (MDA-MB-231 [11]) of 0, a drug sensitivity score (MDA-MB-453 [12]) of 0 and a drug sensitivity score (HCC1599 [13]) of 0. For the same compound, the drug sensitivity score (CAL-148 [14]) was 9.53, the drug sensitivity score (MFM-223 [15]) was 4.88 and the drug sensitivity score (HDQ-P1 [16]) was 0. The drug sensitivity score (CAL-85-1 [17]) was 3.76, the drug sensitivity score (DU-4475 [18]) was 0 and the drug sensitivity score (MDA-MB-436 [19]) was 0. It also gave a drug sensitivity score (CAL-51 [20]) of 4.02.
`O=C(NC[C@H](O)CO)c1ccncc1Nc1ccc(I)cc1F` [Pimasertib] gave a drug sensitivity score (MDA-MB-231 [11]) of 12.2, a drug sensitivity score (MDA-MB-453 [12]) of 0 and a drug sensitivity score (HCC1599 [13]) of 0. It also gave a drug sensitivity score (CAL-148 [14]) of 0, a drug sensitivity score (MFM-223 [15]) of 0 and a drug sensitivity score (HDQ-P1 [16]) of 0. The drug sensitivity score (CAL-85-1 [17]) was 6.45, the drug sensitivity score (DU-4475 [18]) was 9.13 and the drug sensitivity score (MDA-MB-436 [19]) was 0. For the same compound, the drug sensitivity score (CAL-51 [20]) was 0.
Compound `Cn1cc(CNCC2CCN(c3ncc(C(=O)NO)cn3)CC2)c2ccccc21` [Quisinostat] has a drug sensitivity score (MDA-MB-231 [11]) of 13.6, a drug sensitivity score (MDA-MB-453 [12]) of 0.347 and a drug sensitivity score (HCC1599 [13]) of 1.48. It also gave a drug sensitivity score (CAL-148 [14]) of 14.8, a drug sensitivity score (MFM-223 [15]) of 4.71 and a drug sensitivity score (HDQ-P1 [16]) of 1.56. It also gave a drug sensitivity score (CAL-85-1 [17]) of 20.1, a drug sensitivity score (DU-4475 [18]) of 2.71 and a drug sensitivity score (MDA-MB-436 [19]) of 0. The drug sensitivity score (CAL-51 [20]) was 10.9.
In the case of `CC(C)N(CCCNC(=O)Nc1ccc(C(C)(C)C)cc1)C[C@H]1O[C@@H](n2cc(Br)c3c(N)ncnc32)[C@H](O)[C@@H]1O` [SGC0946], the drug sensitivity score (MDA-MB-231 [11]) is reported as 0, the drug sensitivity score (MDA-MB-453 [12]) is reported as 0 and the drug sensitivity score (HCC1599 [13]) is reported as 0. For the same compound, the drug sensitivity score (CAL-148 [14]) was 0, the drug sensitivity score (MFM-223 [15]) was 0 and the drug sensitivity score (HDQ-P1 [16]) was 0. It also gave a drug sensitivity score (CAL-85-1 [17]) of 0, a drug sensitivity score (DU-4475 [18]) of 0 and a drug sensitivity score (MDA-MB-436 [19]) of 0. It also gave a drug sensitivity score (CAL-51 [20]) of 0.
`CNC(=O)c1cc(Oc2ccc(NC(=O)Nc3ccc(Cl)c(C(F)(F)F)c3)cc2)ccn1` [Sorafenib] was tested, and the drug sensitivity score (MDA-MB-231 [11]) was 0, the drug sensitivity score (MDA-MB-453 [12]) was 0 and the drug sensitivity score (HCC1599 [13]) was 0. It also gave a drug sensitivity score (CAL-148 [14]) of 0, a drug sensitivity score (MFM-223 [15]) of 0 and a drug sensitivity score (HDQ-P1 [16]) of 0. It also gave a drug sensitivity score (CAL-85-1 [17]) of 0, a drug sensitivity score (DU-4475 [18]) of 0 and a drug sensitivity score (MDA-MB-436 [19]) of 0. For the same compound, the drug sensitivity score (CAL-51 [20]) was 0, the normalised viability (MDA-MB-231 [1]; 0.1 nM) was 92.8% and 93.4% and the normalised viability (MDA-MB-453 [2]; 0.1 nM) was 109% and 102%. The normalised viability (HCC1599 [3]; 0.1 nM) was 106% and 123%, the normalised viability (BT-474; 0.1 nM) was 109% and 85.3% and the normalised viability (SK-BR-3; 0.1 nM) was 103% and 90.7%. The normalised viability (HCC1143; 0.1 nM) was 109% and 96%, the normalised viability (HCC1937; 0.1 nM) was 101% and 85.2% and the normalised viability (Hs578T; 0.1 nM) was 113% and 99%. The normalised viability (CAL-148 [4]; 0.1 nM) was 112% and 109%, the normalised viability (MFM-223 [5]; 0.1 nM) was 102% and 105% and the normalised viability (BT-549; 0.1 nM) was 119% and 96%. For the same compound, the normalised viability (CAL-85-1 [7]; 0.1 nM) was 104% and 103%, the normalised viability (DU-4475 [8]; 0.1 nM) was 96.9% and 115% and the normalised viability (CAL-120; 0.1 nM) was 97.8% and 95.4%. The normalised viability (MDA-MB-436 [9]; 0.1 nM) was 88% and 95.8% and the normalised viability (CAL-51 [10]; 0.1 nM) was 111% and 95.4%.
In the case of `CCN(CC)CCNC(=O)c1c(C)[nH]c(/C=C2\C(=O)Nc3ccc(F)cc32)c1C` [Sunitinib], the drug sensitivity score (MDA-MB-231 [11]) is reported as 0, the drug sensitivity score (MDA-MB-453 [12]) is reported as 0 and the drug sensitivity score (HCC1599 [13]) is reported as 0. For the same compound, the drug sensitivity score (CAL-148 [14]) was 0, the drug sensitivity score (MFM-223 [15]) was 0 and the drug sensitivity score (HDQ-P1 [16]) was 0. The drug sensitivity score (CAL-85-1 [17]) was 0, the drug sensitivity score (DU-4475 [18]) was 0 and the drug sensitivity score (MDA-MB-436 [19]) was 0. For the same compound, the drug sensitivity score (CAL-51 [20]) was 0, the normalised viability (MDA-MB-231 [1]; 0.1 nM) was 82.2% and 85.6% and the normalised viability (MDA-MB-453 [2]; 0.1 nM) was 99.7% and 100%. The normalised viability (HCC1599 [3]; 0.1 nM) was 112% and 101%, the normalised viability (BT-474; 0.1 nM) was 81% and 89.3% and the normalised viability (SK-BR-3; 0.1 nM) was 94.2% and 93.7%. The normalised viability (MDA-MB-468; 0.1 nM) was 94.7% and 98.5%, the normalised viability (HCC1937; 0.1 nM) was 91.7% and 88.2% and the normalised viability (Hs578T; 0.1 nM) was 104% and 115%. The normalised viability (CAL-148 [4]; 0.1 nM) was 104% and 107%, the normalised viability (MFM-223 [5]; 0.1 nM) was 99.6% and 109% and the normalised viability (BT-549; 0.1 nM) was 87.1% and 85%. The normalised viability (HDQ-P1 [6]; 0.1 nM) was 100% and 93.2%, the normalised viability (CAL-85-1 [7]; 0.1 nM) was 89.3% and 104% and the normalised viability (DU-4475 [8]; 0.1 nM) was 101% and 89.2%. For the same compound, the normalised viability (MDA-MB-436 [9]; 0.1 nM) was 98.4% and 105% and the normalised viability (CAL-51 [10]; 0.1 nM) was 111% and 96%.
